Test results taken from the supplement of paper PMC10307832.

Experiments:
Assay in all cases: relative viability (nuclei count vs DMSO), 5 days (fraction); higher = more cells survive
[1] = compound: COC1=CC=C(C=C1)CN2C=CC3=C2C=C(C=C3)C(=O)NO + Cc1cc(Nc2cc(N3CCN(C)CC3)nc(Sc3ccc(NC(=O)C4CC4)cc3)n2)n[nH]1 [Tozasertib] (partner 0.1 µM)
Procedure, shortened: (§1)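 Lung cancer cell lines in 1536-well plates were dosed by pin tool the day after seeding, either with one drug alone or with a fixed anchor-drug dose plus five library-drug doses (not always all listed) in √10 steps. After 5 days, cells were fixed and their nuclei stained in one step (final 0.05% Triton X-100, 1% formaldehyde, 1 ug/ml Hoechst), then counted on 4× images. Relative viability is the nuclei count in treated wells divided by that in vehicle wells. Values are medians of duplicate plates.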

[2] = compound: COC1=CC=C(C=C1)CN2C=CC3=C2C=C(C=C3)C(=O)NO + NC(=O)Nc1cc(-c2cccc(F)c2)sc1C(=O)N[C@H]1CCCNC1 [AZD7762] (partner 0.2 µM)
Procedure, shortened: as §1

[3] = compound: COC1=CC=C(C=C1)CN2C=CC3=C2C=C(C=C3)C(=O)NO + Nc1nc2[nH]cc(CCc3ccc(C(=O)N[C@@H](CCC(=O)O)C(=O)O)cc3)c2c(=O)[nH]1 [Pemetrexed] (partner 0.2 µM)
Procedure, shortened: as §1

Veliparib + Phenformin = compound: C[C@]1(c2nc3c(C(N)=O)cccc3[nH]2)CCCN1 [Veliparib] + N=C(N)NC(=N)NCCc1ccccc1 [Phenformin] (partner 250 µM)
Procedure, shortened: as §1

Cell Line	relative viability ([1]; first compound 0.253 µM)	relative viability ([1]; first compound 0.8 µM)	relative viability ([1]; first compound 2.53 µM)	relative viability ([1]; first compound 8 µM)	relative viability ([2]; first compound 0.253 µM)	relative viability ([2]; first compound 0.8 µM)	relative viability ([2]; first compound 2.53 µM)	relative viability ([2]; first compound 8 µM)	relative viability ([3]; first compound 0.253 µM)	relative viability ([3]; first compound 0.8 µM)	relative viability ([3]; first compound 2.53 µM)	relative viability ([3]; first compound 8 µM)	relative viability (Veliparib + Phenformin; first compound 0.02 µM)	relative viability (Veliparib + Phenformin; first compound 0.06325 µM)	relative viability (Veliparib + Phenformin; first compound 0.2 µM)	relative viability (Veliparib + Phenformin; first compound 0.6325 µM)	relative viability (Veliparib + Phenformin; first compound 2 µM)	relative viability ([1]; first compound 0.08 µM)	relative viability ([2]; first compound 0.08 µM)	relative viability ([3]; first compound 0.08 µM)
LU99A	0.254	0.298	0.277	0.298	0.392	0.384	0.276	0.208	0.181	0.169	0.174	0.194	0.928	0.838	0.612	0.75	0.976	–	–	–
LXF-289	0.231	0.164	0.195	0.182	1.06	1.04	1.07	1.02	0.937	0.872	0.907	0.881	0.521	0.52	0.533	0.499	0.539	–	–	–
NCI-H23	0.352	0.358	0.301	0.281	0.312	0.32	0.271	0.154	0.625	0.714	0.709	0.668	0.851	0.73	0.762	0.756	0.833	0.292	0.257	0.514
NCI-H322M	0.497	0.525	0.485	0.439	–	0.579	0.668	0.491	–	0.561	0.635	0.609	–	0.641	0.814	0.724	0.747	–	–	–
NCI-H358	0.0969	0.108	0.131	0.0806	0.54	0.443	0.557	0.354	0.161	0.161	0.167	0.164	0.226	0.316	0.337	0.32	0.351	–	–	–
NCI-H441	0.604	0.561	0.768	0.493	1.3	1.19	1.2	0.887	0.264	0.273	0.278	0.261	0.915	0.986	0.855	0.72	0.876	0.679	1.08	0.26
NCI-H460	0.381	0.422	0.411	0.195	0.485	0.588	0.614	0.515	0.058	0.0547	0.0598	0.0652	0.361	0.491	0.484	0.489	0.52	0.309	0.536	0.0617
NCI-H522	0.589	0.53	0.613	0.545	0.792	1.06	0.951	0.612	1.01	1.06	0.84	1	0.683	0.664	0.667	0.583	0.802	–	–	–
NCI-H596	0.823	0.872	0.938	0.743	1.18	1.07	1.19	0.937	0.501	0.5	0.469	0.492	0.633	0.744	0.809	0.725	0.747	1.05	1.12	0.42
NCI-H647	0.237	0.314	0.262	0.267	0.437	0.495	0.361	0.369	0.154	0.149	0.166	0.231	0.438	0.405	0.563	0.505	0.597	0.224	–	0.142
NCI-H650	0.69	0.786	0.673	0.672	0.686	0.816	1.1	0.763	1.03	0.89	0.892	0.888	0.439	0.385	0.405	0.408	0.412	0.595	0.944	0.864
NCI-H838	0.267	0.293	0.274	0.267	0.981	0.949	0.967	0.909	0.27	0.244	0.234	0.257	0.576	0.495	0.564	0.424	0.628	–	0.694	0.232
NCI-H1355	0.548	0.585	0.531	0.515	0.817	0.745	0.761	0.574	1.06	0.978	1.06	0.998	–	0.425	0.46	0.423	0.442	–	0.392	0.538
NCI-H1395	0.817	0.761	0.781	0.565	0.394	0.382	0.398	0.397	0.788	0.913	0.91	0.726	0.355	0.421	0.437	0.393	0.408	0.673	–	–
NCI-H1437	0.446	0.395	0.42	0.409	1.13	1.03	1.13	1.1	0.358	0.319	0.305	0.3	0.311	0.237	0.357	0.253	0.299	0.321	1.02	0.334
NCI-H1651	0.717	0.799	0.713	0.645	0.437	0.394	0.406	0.369	0.523	0.587	0.512	0.56	0.286	0.34	0.379	0.279	0.316	0.574	0.414	0.561
